Results from ChEMBL document CHEMBL3286324, “Serendipitous oxidation product of BIBN4096BS: a potent CGRP receptor antagonist” (Bioorg Med Chem Lett, 2014).

Experiments:
[1] = molecular target: T1, Calcitonin gene-related peptide type 1 receptor (Homo sapiens, UniProt O60894+Q16602); assay: Antagonist activity at CGRP receptor in human SK-N-MC cells assessed as inhibition of alpha-CGRP-induced c-AMP formation after 15 mins by radioimmunoassay; format: cell-based
[2] = molecular target: T1, Calcitonin gene-related peptide type 1 receptor; assay: Displacement of [125I]-hCGRP from CGRP receptor in human SK-N-MC cell membranes after 2 hrs by scintillation counting analysis

T1 sequence (Q16602 whole entry, one chain of several): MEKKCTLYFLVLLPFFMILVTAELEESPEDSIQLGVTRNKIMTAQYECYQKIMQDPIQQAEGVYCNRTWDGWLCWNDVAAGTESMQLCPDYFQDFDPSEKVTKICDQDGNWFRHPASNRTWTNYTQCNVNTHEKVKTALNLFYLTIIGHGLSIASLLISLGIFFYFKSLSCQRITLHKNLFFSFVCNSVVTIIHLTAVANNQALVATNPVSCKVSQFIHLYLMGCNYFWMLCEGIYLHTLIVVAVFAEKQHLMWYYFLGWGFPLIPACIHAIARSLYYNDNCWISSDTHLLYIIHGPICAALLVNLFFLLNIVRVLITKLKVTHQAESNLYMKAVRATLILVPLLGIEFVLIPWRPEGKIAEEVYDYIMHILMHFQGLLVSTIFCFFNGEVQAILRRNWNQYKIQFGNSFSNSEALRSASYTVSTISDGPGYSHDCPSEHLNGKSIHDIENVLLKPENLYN

| EC50 [1] | IC50 [2] | SMILES |
| --- | --- | --- |
| 0.15 nM |  | NCCCC[C@H](NC(=O)[C@@H](Cc1cc(Br)c(O)c(Br)c1)NC(=O)N1CCC(n2c(=O)[nH]c3ccccc3c2=O)CC1)C(=O)N1CCN(c2ccncc2)CC1 |
| 96 nM | 25 nM | NCCCC[C@H](NC(=O)[C@@H](Cc1cc2ccccc2s1)NC(=O)N1CCC(N2Cc3ccccc3NC2=O)CC1)C(=O)N1CCN(c2ccncc2)CC1 |
| 100 nM | 2.7 nM | NCCCC[C@H](NC(=O)[C@@H](Cc1cc2ccccc2s1)NC(=O)N1CCC(n2c(=O)[nH]c3ccccc3c2=O)CC1)C(=O)N1CCN(c2ccncc2)CC1 |
